Converted amounts (≈) assume the structure as drawn. Where a SMILES comes first, the peptide text is derived from it.
Legend:
S. aureus ATCC 25923 = assay type: cell-based, Staphylococcus aureus; conditions: ATCC 25923, 18 h
From the text: (§1) To compare the antimicrobial activity among the peptides produced by the method of Example 1, the inventors of the present invention measured the minimal growth inhibitory concentration (MIC), which is minimum concentration of the peptide not allowing any […] of bacterial cells.
(§2) Specifically, the bacterial strains described in the following Table 2 were purchased and cultured to a mid-log phase in MHB (Mueller Hinton Broth) medium. Then, after dilution to bacterial cell concentration of 2×10^5 cells/50 μl, the cells were inoculated to a microtiter plate (NUNC, USA). Thereafter, LL37-1, LL37-2, LL37-3 or LL37-4 peptide which has been synthesized in Example 1 above was subjected to serial dilution, ½ times for each, in a 96-well plate. After adding the peptides in an amount of 50 μl to the cell plate, the cells were cultured for 18 hours at 37° C. By using a microtiter plate reader (Merck Elisa reader, Germany), the absorbance was measured at a wavelength of 600 nm to determine the MIC value of each bacterial strain. As a control group, LL37 as a mother peptide was used and subjected to the same process as above to determine the MIC value of each strain.

[1] = system: L. monocytogenes KCTC 3710; assay type: cell-based, Listeria monocytogenes; conditions: KCTC 3710, 18 h
From the text: as §1, §2

A. baumannii #10 = assay type: cell-based, Acinetobacter baumannii; conditions: #10
From the text: as §1, §2

A. baumannii #11 = assay type: cell-based, Acinetobacter baumannii; conditions: #11
From the text: as §1, §2

A. baumannii #12 = assay type: cell-based, Acinetobacter baumannii; conditions: #12
From the text: as §1, §2

A. baumannii #13 = assay type: cell-based, Acinetobacter baumannii; conditions: #13
From the text: as §1, §2

A. baumannii #19 = assay type: cell-based, Acinetobacter baumannii; conditions: #19
From the text: as §1, §2

A. baumannii #2 = assay type: cell-based, Acinetobacter baumannii; conditions: #2
From the text: as §1, §2

A. baumannii #3 = assay type: cell-based, Acinetobacter baumannii; conditions: #3
From the text: as §1, §2

A. baumannii #4 = assay type: cell-based, Acinetobacter baumannii; conditions: #4
From the text: as §1, §2

A. baumannii #5 = assay type: cell-based, Acinetobacter baumannii; conditions: #5
From the text: as §1, §2

A. baumannii #8 = assay type: cell-based, Acinetobacter baumannii; conditions: #8
From the text: as §1, §2

A. baumannii #9 = assay type: cell-based, Acinetobacter baumannii; conditions: #9
From the text: as §1, §2

A. baumannii KCTC 2508 = assay type: cell-based, Acinetobacter baumannii; conditions: KCTC 2508, 18 h
From the text: as §1, §2

E. coli ATCC 25922 = assay type: cell-based, Escherichia coli; conditions: ATCC 25922, 18 h
From the text: as §1, §2

P. aeruginosa ATCC 27853 = assay type: cell-based, Pseudomonas aeruginosa; conditions: ATCC 27853, 18 h
From the text: as §1, §2

S. typhimurium KCTC 1925 = assay type: cell-based, Salmonella typhimurium; conditions: KCTC 1925, 18 h
From the text: as §1, §2

[2] = Cytotoxicity in normal cell line (MTT); assay type: cell-based, human; conditions: human
Description: To determine the cytotoxicity of the peptides produced by the method of Example 1 in normal cell line, cytotoxicity was measured by using normal human keratinocyte cell line (HaCaT) and normal human fibroblast cell line (Hs27).
Specifically, normal human keratinocyte (HaCaT) cells and normal human fibroblast (Hs27) cells, which have been cultured in DMEM medium containing 10% FBS (fetal bovine serum), were aliquoted in a microtiter plate to have 1×10^4 cells per well. After culturing them for 24 hours, the cells were subjected to a treatment with LL37, LL37-1, LL37-2, LL37-3 or LL37-4 peptide, each at concentration of 0.5, 1, 2, 4, 8, 16 or 32 μM/well, followed by reaction for 24 hours in a 5% CO2 incubator. After culture, a reaction solution containing 5 mg/ml MTT (Thiazolyl Blue Tetrazolium Bromide) dissolved in phosphate buffered saline (PBS) was added in an amount of 10 μl to each well and the reaction was allowed to occur for 1 hour. After that, the supernatant was discarded, and, by dissolving MTT crystals that are formed by adding 200 μl DMSO (dimethyl sulfoxide), the absorbance at 570 nm was measured to determine the cell survival ability.

CC[C@H](C)[C@H](NC(=O)[C@H](CCCNC(=N)N)NC(=O)[C@H](CCC(N)=O)NC(=O)[C@@H](NC(=O)[C@@H](NC(=O)[C@H](CCCNC(=N)N)NC(=O)[C@H](CCCCN)NC(=O)[C@H](Cc1ccccc1)NC(=O)[C@H](CCC(=O)O)NC(=O)[C@@H](N)CCCCN)[C@@H](C)CC)C(C)C)C(=O)N[C@@H](CCCCN)C(=O)N[C@@H](CC(=O)O)C(=O)N[C@@H](Cc1ccccc1)C(=O)N[C@@H](CC(C)C)C(=O)N[C@@H](CCCNC(=N)N)C(=O)N[C@@H](CC(N)=O)C(N)=O [LL37-1, KEFKRIVQRIKDFLRN-NH2] (H-KEFKRIVQRIKDFLRN-NH2)
Minimal inhibitory concentration (S. aureus ATCC 25923): 32 µM (≈ 66.9 µg/mL)
Minimal inhibitory concentration [1]: 128 µM (≈ 267 µg/mL)
Minimal inhibitory concentration (A. baumannii #10): 4 µM (≈ 8.36 µg/mL)
Minimal inhibitory concentration (A. baumannii #11): 4 µM (≈ 8.36 µg/mL)
Minimal inhibitory concentration (A. baumannii #12): 8 µM (≈ 16.7 µg/mL)
Minimal inhibitory concentration (A. baumannii #13): 4 µM (≈ 8.36 µg/mL)
Minimal inhibitory concentration (A. baumannii #19): 8 µM (≈ 16.7 µg/mL)
Minimal inhibitory concentration (A. baumannii #2): 4 µM (≈ 8.36 µg/mL)
Minimal inhibitory concentration (A. baumannii #3): 8 µM (≈ 16.7 µg/mL)
Minimal inhibitory concentration (A. baumannii #4): 8 µM (≈ 16.7 µg/mL)
Minimal inhibitory concentration (A. baumannii #5): 4 µM (≈ 8.36 µg/mL)
Minimal inhibitory concentration (A. baumannii #8): 4 µM (≈ 8.36 µg/mL)
Minimal inhibitory concentration (A. baumannii #9): 4 µM (≈ 8.36 µg/mL)
Minimal inhibitory concentration (A. baumannii KCTC 2508): 16 µM (≈ 33.4 µg/mL)
Minimal inhibitory concentration (E. coli ATCC 25922): 128 µM (≈ 267 µg/mL)
Minimal inhibitory concentration (P. aeruginosa ATCC 27853): 16 µM (≈ 33.4 µg/mL)
Minimal inhibitory concentration (S. typhimurium KCTC 1925): 32 µM (≈ 66.9 µg/mL)
viability at 24 h, 0.5 µM ([2]; HaCaT keratinocyte cells): 97%
viability at 24 h, 1 µM ([2]; HaCaT keratinocyte cells): 103%
viability at 24 h, 2 µM ([2]; HaCaT keratinocyte cells): 98%
viability at 24 h, 4 µM ([2]; HaCaT keratinocyte cells): 99%
viability at 24 h, 8 µM ([2]; HaCaT keratinocyte cells): 103%
viability at 24 h, 16 µM ([2]; HaCaT keratinocyte cells): 101%
viability at 24 h, 32 µM ([2]; HaCaT keratinocyte cells): 104%
viability at 24 h, 0.5 µM ([2]; Hs27 fibroblast cells): 100%
viability at 24 h, 1 µM ([2]; Hs27 fibroblast cells): 100%
viability at 24 h, 2 µM ([2]; Hs27 fibroblast cells): 103%
viability at 24 h, 4 µM ([2]; Hs27 fibroblast cells): 95%
viability at 24 h, 8 µM ([2]; Hs27 fibroblast cells): 96%
viability at 24 h, 16 µM ([2]; Hs27 fibroblast cells): 92%
viability at 24 h, 32 µM ([2]; Hs27 fibroblast cells): 95%

— patent publication US11452758B2, “Antimicrobial peptide derived from LL37 peptide and uses thereof” (INDUSTRY-ACADEMIC COOPERATION FOUNDATION, CHOSUN UNIVERSITY, priority 2018, dated 2022)
